These results are taken from US6642254B2, “Heterocyclic compounds and their therapeutic use” (Darwin Discovery, Ltd., priority 1998, dated 2003).

Values after ≈ are worked out from the molar mass of the structure shown. Like-named read-outs stand apart in the source and are kept apart here.

Broadly, the solubility is the dissolved amount per volume that the medium holds.

The nature of data set [1]: Pharmacokinetic profile in cannulated rats (oral dosing). The data set is classed as in vivo. The settings on record: rat, oral dose 3 mg/kg, plasma. The protocol:
The pharmacokinetic profile of the compounds of the invention is determined in rats cannulated in the right carotid artery for blood collection. For iv dosing, the compound is prepared in a suitable formulation, for example 10% v/v DMSO, 50% v/v PEG 400 in water, and dosing is carried out by cannulation of the left jugular vein. Samples are collected at 5 min, 0.5, 1, 2, 4, 6 and 8 hours post-dosing. For oral dosing, the compound is prepared in a suitable formulation such as 0.4% w/v methylcellulose in water Samples are collected at 0.5, 1, 2, 4, 6 and 8 hours post-dosing. In some cases, samples are also collected at 12 hours post-dosing. Plasma is obtained by centrifugation of the each blood sample and drug concentration is then determined using standard methods, such as liquid chromatography-mass spectrometry following protein precipitation.
Results are tabulated below, and are also shown in the accompanying drawing. The drawing is a graph of PK data following oral dosing in the rat; PC (plasma concentration; ng/ml) is plotted against t (time; hours). ▪ represents the compound of Example 8, and · the free base. The superiority of the novel compound is evident.

A short description of data set [2]: Solubility in water at pH 7. The data set is classed as physicochemical. As for the experimental part:
The solubility of the compound of Example 8, in water at pH 7, was 0.2 mg/ml. The solubility of the corresponding free base, under the same conditions, was 0.002 mg/ml.

In the case of `COc1ccc(C(=O)Nc2c(Cl)c[n+]([O-])cc2Cl)c2ccc(C(F)(F)F)nc12` [Example 8, 8-Methoxy-2-trifluoromethylquinoline-5-carboxylic Acid (3,5-dichloro-1-oxypyridin-4-yl)amide], in data set [1], the “AUC0-last (po)” value stood at 30169 ng·h/mL, the “Cmax (po)” value was 3054 ng/mL and the “t1/2 (po)” value stood at 20 h. Moreover, the solubility in data set [2] turned out to be 200 µg/mL (≈ 463 µM).

On to `COc1ccc(C(=O)Nc2c(Cl)cncc2Cl)c2ccc(C(F)(F)F)nc12` [Free base, 8-Methoxy-2-trifluoromethylquinoline-5-carboxylic acid (3,5-dichloropyridin-4-yl)amide], for which the “Cmax (po)” value in data set [1] worked out at 1008 ng/mL. Moreover, in data set [1] (read-out: AUC0-last (po)), the AUC(0-t) came out at 6860 ng·h/mL. The half-life in data set [1] (read-out: t1/2 (po) (converted)) is 4.5 h. Besides, the solubility in data set [2] (aqueous buffer, read-out: solubility) is 2 µg/mL (≈ 4.81 µM).
